Here are results for 25 molecules from patent US20240025912A1 (Merck Sharp & Dohme LLC, priority 2022, published 2024).

For this test, the target named is GST-RIPK1 (recombinant GST-RIPK1 kinase domain (residues 1-327)) (Homo sapiens (Human), UniProt Q13546). The test is described as follows: RIPK1-ADP-Glo Enzymatic Assay. The class given is biochemical. The following applies: 25 nM GST-RIPK1, 300 μM ATP, 3 μM dephosphorylated-MBP, 30 min pre-incubation, 150 min reaction. The procedure:
The enzymatic activity of RIPK1 is measured using an assay derived from ADP-Glo kit (TMPromega), which provides a luminescent-based ADP detection system. Specifically, the ADP generated by RIPK1 kinase is proportionally detected as luminescent signals in a homogenous fashion. In this context, the assessment of the inhibitory effect of small molecules (EC50) is measured by the effectiveness of the compounds to inhibit the ATP to ADP conversion by RIPK1.
In this assay, the potency (EC50) of each compound was determined from a ten-point (1:3 serial dilution; top compound concentration of 100000 nM) titration curve using the following outlined procedure. To each well of a white ProxiPlus 384 well-plate, 30 nL of compound (1% DMSO in final assay volume of 3 μL) was dispensed, followed by the addition of 2 μL of 1× assay buffer (25 mM Hepes 7.3, 20 mM MgCl2, 50 mM NaCl, 1 mM DTT, 0.005% Tween20, and 0.02% BSA) containing 37.5 nM of GST-RIPK1 (recombinant GST-RIPK1 kinase domain (residues 1-327) enzyme produced from baculovirus-transfected Sf21 cells: MW 62 kDa). Plates were placed in an ambient temperature humidified chamber for a 30 min pre-incubation with compound. Subsequently, each reaction was initiated by the addition of 1 μL 1× assay buffer containing 900 μM ATP and 3 μM dephosphorylated-MBP substrate. The final reaction in each well of 3 μL consists of 25 nM of GST-RIPK1, 300 μM ATP, and 3 μM dephosphorylated-MBP. Kinase reactions were allowed to proceed for 150 min prior to adding ADP-Glo reagents per Promega's outlined kit protocol. Dose-response curves were generated by plotting percent effect (% product conversion; Y-axis) vs. Log 10 compound concentrations (X-axis). EC50 values were calculated using a non-linear regression, four-parameters sigmoidal dose-response model.
For orientation: In ADP-Glo the light output rises with the ADP produced.

Chain of GST-RIPK1 (recombinant GST-RIPK1 kinase domain (residues 1-327)) (Q13546 1-327): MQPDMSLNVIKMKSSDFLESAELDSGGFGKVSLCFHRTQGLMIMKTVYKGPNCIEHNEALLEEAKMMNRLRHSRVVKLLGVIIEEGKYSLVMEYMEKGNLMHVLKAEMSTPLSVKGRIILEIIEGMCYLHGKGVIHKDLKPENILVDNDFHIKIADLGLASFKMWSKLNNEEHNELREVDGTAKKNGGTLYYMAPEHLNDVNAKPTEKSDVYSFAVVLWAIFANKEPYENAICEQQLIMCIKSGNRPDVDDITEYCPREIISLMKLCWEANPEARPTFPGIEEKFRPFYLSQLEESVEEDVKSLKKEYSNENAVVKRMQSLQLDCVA

As for `N#CC12CC(n3nc4n(c3=O)C(c3cnccn3)CC4)(C1)C2` (racemic) [Compound 4-1, (±)-3-(3-oxo-5-(pyrazin-2-yl)-6,7-dihydro-3H-pyrrolo[2,1-c][1,2,4]triazol-2(5H)-yl)bicyclo[1.1.1]pentane-1-carbonitrile], the 50% effective concentration (EC50) (usually the concentration at which the effect is half-maximal) is 385 nM.
Take `COc1cc(F)cc(C2CCc3nn(C45CC(F)(C4)C5)c(=O)n32)c1` (racemic) [Compound 4-2, (±)-5-(3-fluoro-5-methoxyphenyl)-2-(3-fluorobicyclo[1.1.1]pentan-1-yl)-2,5,6,7-tetrahydro-3H-pyrrolo[2,1-c][1,2,4]triazol-3-one]: the EC50 is 259 nM.
As for `N#Cc1cccc(C2CCc3nn(C45CC(F)(C4)C5)c(=O)n32)c1` (racemic) [Compound 4-3, (±)-3-[2-(3-fluorobicyclo[1.1.1]pentan-1-yl)-3-oxo-2,5,6,7-tetrahydro-3H-pyrrolo[2,1-c][1,2,4]triazol-5-yl]benzonitrile], the EC50 is 426 nM.
As to `C#Cc1cccc(C2CCc3nn(C45CC(F)(C4)C5)c(=O)n32)c1` (racemic) [Compound 4-4, (±)-5-(3-ethynylphenyl)-2-(3-fluorobicyclo[1.1.1]pentan-1-yl)-2,5,6,7-tetrahydro-3H-pyrrolo[2,1-c][1,2,4]triazol-3-one], the EC50 turned out to be 495 nM.
Turning to `O=c1n(C23CC(F)(C2)C3)nc2n1C(c1cccc(F)c1F)CC2` (racemic) [Compound 4-5, (±)-5-(2,3-difluorophenyl)-2-(3-fluorobicyclo[1.1.1]pentan-1-yl)-2,5,6,7-tetrahydro-3H-pyrrolo[2,1-c][1,2,4]triazol-3-one], the EC50 stood at 53.8 nM.
Take `Cc1cc(F)cc(C2CCc3nn(C45CC(F)(C4)C5)c(=O)n32)c1` (racemic) [Compound 4-6, (±)-2-(3-fluorobicyclo[1.1.1]pentan-1-yl)-5-(3-fluoro-5-methylphenyl)-2,5,6,7-tetrahydro-3H-pyrrolo[2,1-c][1,2,4]triazol-3-one]: the EC50 turned out to be 44.1 nM.
With `CC1Cc2nn(C34CC(C#N)(C3)C4)c(=O)n2C1c1cc(F)cc(F)c1` (single isomer, unassigned) [Compound 1-52, 3-[5-(S or R)-(3,5-difluorophenyl)-6-(S or R)-methyl-3-oxo-6,7-dihydro-3H-pyrrolo[2,1-c][1,2,4]triazol-2(5H)-yl]bicyclo[1.1.1]pentane-1-carbonitrile], the EC50 stood at 601 nM.
To `N#CC12CC(n3nc4n(c3=O)C(C3CCCC3)CC4)(C1)C2` (single isomer, unassigned) [Compound 1-54, 3-(5-(S or R)-cyclopentyl-3-oxo-6,7-dihydro-3H-pyrrolo[2,1-c][1,2,4]triazol-2(5H)-yl)bicyclo[1.1.1]pentane-1-carbonitrile] belongs 340 nM; to `N#CC12CC(n3nc4n(c3=O)C(C3CCCCC3)CC4)(C1)C2` (single isomer, unassigned) [Compound 1-55, 3-(5-(S or R)-cyclohexyl-3-oxo-6,7-dihydro-3H-pyrrolo[2,1-c][1,2,4]triazol-2(5H)-yl)bicyclo[1.1.1]pentane-1-carbonitrile], 103 nM; to `O=c1n(C23CC(F)(C2)C3)nc2n1[C@H](c1cc(F)cc(F)c1)CC2F` (single isomer, unassigned) [Compound 6-1, (5S)-5-(3,5-difluorophenyl)-7-(S or R)-fluoro-2-(3-fluorobicyclo[1.1.1]pentan-1-yl)-2,5,6,7-tetrahydro-3H-pyrrolo[2,1-c][1,2,4]triazol-3-one], 116 nM.
With `O=c1n(C23CC(F)(C2)C3)nc2n1[C@H](c1cc(F)cc(F)c1)CC2F` (single isomer, unassigned) [Compound 6-2, (5S)-5-(3,5-difluorophenyl)-7-(S or R)-fluoro-2-(3-fluorobicyclo[1.1.1]pentan-1-yl)-2,5,6,7-tetrahydro-3H-pyrrolo[2,1-c][1,2,4]triazol-3-one], the EC50 was found to be 18.4 nM.
As to `O=c1n(C23CC(F)(C2)C3)nc2n1[C@H](c1ccccc1)CC2F` (single isomer, unassigned) [Compound 6-3, (5S)-7-(S or R)-fluoro-2-(3-fluorobicyclo[1.1.1]pentan-1-yl)-5-phenyl-2,5,6,7-tetrahydro-3H-pyrrolo[2,1-c][1,2,4]triazol-3-one], the EC50 was determined as 157 nM.
To `O=c1n(C23CC(F)(C2)C3)nc2n1[C@H](c1ccccc1)CC2F` (single isomer, unassigned) [Compound 6-4, (5S)-7-(S or R)-fluoro-2-(3-fluorobicyclo[1.1.1]pentan-1-yl)-5-phenyl-2,5,6,7-tetrahydro-3H-pyrrolo[2,1-c][1,2,4]triazol-3-one] belongs 21.9 nM; to `N#CC12CC(n3nc4n(c3=O)[C@H](c3cc(F)cc(F)c3)CC4F)(C1)C2` (single isomer, unassigned) [Compound 6-5, 3-[(5S)-5-(3,5-difluorophenyl)-7-(S or R)-fluoro-3-oxo-6,7-dihydro-3H-pyrrolo[2,1-c][1,2,4]triazol-2(5H)-yl]bicyclo[1.1.1]pentane-1-carbonitrile], 274 nM; to `N#CC12CC(n3nc4n(c3=O)[C@H](c3cc(F)cc(F)c3)CC4F)(C1)C2` (single isomer, unassigned) [Compound 6-6, 3-[(5S)-5-(3,5-difluorophenyl)-7-(S or R)-fluoro-3-oxo-6,7-dihydro-3H-pyrrolo[2,1-c][1,2,4]triazol-2(5H)-yl]bicyclo[1.1.1]pentane-1-carbonitrile], 20.5 nM.
On to `N#CC12CC(n3nc4n(c3=O)[C@H](c3ccccc3)CC4F)(C1)C2` (single isomer, unassigned) [Compound 6-7, 3-[(5S)-7-(S or R)-fluoro-3-oxo-5-phenyl-6,7-dihydro-3H-pyrrolo[2,1-c][1,2,4]triazol-2(5H)-yl]bicyclo[1.1.1]pentane-1-carbonitrile], for which the EC50 was 505 nM.
As for `N#CC12CC(n3nc4n(c3=O)[C@H](c3ccccc3)CC4F)(C1)C2` (single isomer, unassigned) [Compound 6-8, 3-[(5S)-7-(S or R)-fluoro-3-oxo-5-phenyl-6,7-dihydro-3H-pyrrolo[2,1-c][1,2,4]triazol-2(5H)-yl]bicyclo[1.1.1]pentane-1-carbonitrile], the concentration for a half-maximal effect (EC50) is 21.8 nM.
To `N#CC12CC(n3nc4n(c3=O)[C@H](c3ccccc3F)CC4F)(C1)C2` (single isomer, unassigned) [Compound 6-9, 3-[(5S)-7-(S or R)-fluoro-5-(2-fluorophenyl)-3-oxo-6,7-dihydro-3H-pyrrolo[2,1-c][1,2,4]triazol-2(5H)-yl]bicyclo[1.1.1]pentane-1-carbonitrile] belongs 68.9 nM; to `N#CC12CC(n3nc4n(c3=O)[C@H](c3ccccc3F)CC4F)(C1)C2` (single isomer, unassigned) [Compound 6-10, 3-[(5S)-7-(S or R)-fluoro-5-(2-fluorophenyl)-3-oxo-6,7-dihydro-3H-pyrrolo[2,1-c][1,2,4]triazol-2(5H)-yl]bicyclo[1.1.1]pentane-1-carbonitrile], 18.1 nM.
Next, `O=c1n(C23CCC(CC2)C3)nc2n1[C@H](c1ccccc1)CC2` [Compound 1-1, (5S)-2-(bicyclo[2.2.1]heptan-1-yl)-5-phenyl-2,5,6,7-tetrahydro-3H-pyrrolo[2,1-c][1,2,4]triazol-3-one]: 21.6 nM; `O=c1n(C23CC(F)(C2)C3)nc2n1[C@H](c1cc(F)cc(F)c1)CC2` [Compound 1-2, (5S)-5-(3,5-difluorophenyl)-2-(3-fluorobicyclo[1.1.1]pentan-1-yl)-2,5,6,7-tetrahydro-3H-pyrrolo[2,1-c][1,2,4]triazol-3-one]: 22.8 nM; `O=c1n(C23CCC(F)(CC2)C3)nc2n1[C@H](c1cc(F)cc(F)c1)CC2` [Compound 1-3, (5S)-5-(3,5-difluorophenyl)-2-(4-fluorobicyclo[2.2.1]heptan-1-yl)-2,5,6,7-tetrahydro-3H-pyrrolo[2,1-c][1,2,4]triazol-3-one]: 34.8 nM.
Next, `O=c1n(C23CCC(C2)C3)nc2n1[C@H](c1cc(F)cc(F)c1)CC2` [Compound 1-4, (5S)-2-(bicyclo[2.1.1]hexan-1-yl)-5-(3,5-difluorophenyl)-2,5,6,7-tetrahydro-3H-pyrrolo[2,1-c][1,2,4]triazol-3-one]: 31.1 nM; `N#CC12CC(n3nc4n(c3=O)[C@H](c3cc(F)cc(F)c3)CC4)(C1)C2` [Compound 1-5, 3-[(5S)-5-(3,5-difluorophenyl)-3-oxo-6,7-dihydro-3H-pyrrolo[2,1-c][1,2,4]triazol-2(5H)-yl]bicyclo[1.1.1]pentane-1-carbonitrile]: 14.8 nM; `O=c1n(C23CC(F)(C2)C3)nc2n1[C@H](c1ccccc1)CC2` [Compound 1-6, (5S)-2-(3-fluorobicyclo[1.1.1]pentan-1-yl)-5-phenyl-2,5,6,7-tetrahydro-3H-pyrrolo[2,1-c][1,2,4]triazol-3-one]: 51.2 nM.
